The values that follow come from patent publication US12673973B2, “Peptide having blood coagulation activity, and use thereof” (CAREGEN CO, LTD., priority 2021, dated 2026).

Peptide text beside a SMILES is read from it. Some results are limits rather than exact numbers.

The test system of one data set is red blood cells. The experiment in a line: Hemolysis test. The format is cell-based, rat. Particulars: 1 hour 37° C. On the procedure:
Furthermore, it was confirmed whether hemolysis, in which blood cells are destroyed, occurs by treatment with the peptide of the present invention. In a state where the coagulation reaction of the collected rat blood was suppressed in a heparinized vacuum collection tube, it was transferred to an EP tube and centrifuged at 1,500 g for 10 minutes. After removing the supernatant plasma, the precipitated red blood cells were treated with 200 μl of 2.5% and 5% of the peptide of the present invention, respectively. A sample treated with 1% SDS was used as a positive control for hemolysis. Each sample was stored for 1 hour in a 37° C. incubator, and then centrifuged again at 1,500 g for 10 minutes. 200 μl of the supernatant was transferred to a 96-well plate, and the optical density was measured at a wavelength of 540 nm.

For data set [1], the system named is rat blood. The experiment in a line: Blood coagulation test: clotting time by tube inversion. The format is cell-based. Particulars: 300 μl heparinized rat blood + 150 μl sample, peptides at 2.5%. On the procedure: First, the clotting time of blood according to the treatment of the peptide of the present invention was evaluated. In a state where the coagulation reaction of the collected rat blood was suppressed in a heparinized vacuum collection tube, 300 μl of blood was transferred to an EP tube, and 150 μl of a solution in which the peptide of the present invention was dissolved in purified water was treated thereto. The clotting time was measured by inverting the tube at 10-second intervals and visually evaluating the flowability of the blood. As a control group, the RADA16 peptide sample and Greenplast (Greenplast Q, GC Green Cross) were used to conduct the experiment in the same manner as the peptide of the present invention.

Data set [2] concerns rat blood. The data set is described as follows: Blood coagulation test: optical density of supernatant. Type of data set: cell-based. The following applies: heparinized rat blood, CaCl2 added, 37° C. 10 minutes. On the procedure:
In addition, in order to evaluate the coagulation efficacy of the peptide of the present invention, the peptide of the Preparation Example was treated with rat blood, and its optical density was measured. Specifically, in a state where the coagulation reaction of the collected rat blood was suppressed in a heparinized vacuum collection tube, 300 μl of blood was transferred to a 15 ml conical tube, and 300 μl of the peptide of the present invention solution was added thereto and mixed gently. Then, 30 μl of 0.2 M CaCl2 solution was added thereto and incubated at 37° C. for 10 minutes to accelerate the coagulation reaction. Then, 10 ml of distilled water was carefully added thereto, and 200 μl of the uniformly dispersed supernatant was added to a 96-well plate, and the optical density was measured at a wavelength of 540 nm using a spectrophotometer. Likewise, Greenplast and RADA16 peptide preparations were used as controls.

On to `CC[C@H](C)[C@H](NC(=O)[C@H](CC(N)=O)NC(=O)CNC(=O)[C@H](C)NC(=O)[C@H](CC(C)C)NC(=O)[C@H](Cc1ccc(O)cc1)NC(=O)[C@H](C)NC(=O)[C@H](CCC(N)=O)NC(=O)[C@H](CO)NC(=O)[C@H](C)NC(=O)[C@@H](N)CO)C(=O)N[C@H](C(=O)O)[C@@H](C)O` [Peptide of the present invention, SASQAYLAGNIT] (H-SASQAYLAGNIT-OH), for which the “hemolysis (optical density of supernatant at 540 nm)” value is given as “did not induce hemolysis” in the data set on red blood cells (2.5% peptide, 200 μl) and “did not induce hemolysis” with red blood cells (5% peptide, 200 μl).
As for RADA16, the “Blood Clotting time” value was less than 30 s in the data set on rat blood [1] and “less than 30 sec” with rat blood [1] (listed as RADA16 peptide). In addition, the “optical density (540 nm) of supernatant relative to negative control treated with distilled water” value in the data set with rat blood [2] turned out to be 0.7.
For `CCCCCCCCCCCCOS(=O)(=O)[O-].[Na+]` [SDS], in the data set on red blood cells (1% SDS positive control), the “hemolysis (optical density of supernatant at 540 nm)” value is “hemolysis occurred”.
